The conditions of experiment [1]: as described in WO 95/02604, cited from earlier work.
Another experiment has as its target T1, human A3 receptors (Homo sapiens, UniProt P0DMS8).
T1 construct: expressed in transfected cells; membranes prepared in house
T1 sequence (P0DMS8 1-318): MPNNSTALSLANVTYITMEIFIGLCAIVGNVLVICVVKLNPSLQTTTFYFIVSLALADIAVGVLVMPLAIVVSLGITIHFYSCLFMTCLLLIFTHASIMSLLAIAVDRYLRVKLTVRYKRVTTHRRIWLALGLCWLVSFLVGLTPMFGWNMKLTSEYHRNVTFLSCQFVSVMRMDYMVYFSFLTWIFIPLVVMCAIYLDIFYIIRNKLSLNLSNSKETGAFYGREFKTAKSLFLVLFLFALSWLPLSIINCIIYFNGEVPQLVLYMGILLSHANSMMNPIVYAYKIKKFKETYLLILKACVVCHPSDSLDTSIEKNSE
As to the kind of experiment: A3 binding assay ([125I]-AB-MECA radioligand, CHO membranes). Particulars: [125I]-AB-MECA 0.25 nM. The procedure: Compounds in the present invention were tested in an A3 binding assay using the iodinated ligand [^125I]-AB-MECA with membranes prepared from CHO cells stably expressing human A3 receptors.
Radioligand binding to the CHO A3 membranes was performed using radio-labelled agonist [^125I]-AB-MECA at a concentration range of 0.002-5 nM to obtain saturation binding. Binding experiments were performed in duplicate using 2.5 μg membrane in a total volume of 200 μL of assay buffer. The non-specific binding was determined in the presence of 10 μM of the agonist I-AB-MECA.
The assay was performed in a final volume of 200 μL/well, in a U-bottomed polypropylene 96-well plate. […] Total binding was determined using 50 μL vehicle. Non-specific binding was determined using 50 μL of 40 μM I-AB-MECA, to give a final assay concentration of 10 μM. • 50 μL [^125I]-AB-MECA at a concentration of 1 nM (4×), to give a final assay concentration of 0.25 nM. • 100 μL CHO A3 membranes at a concentration of 25 μg/mL in assay buffer containing 4 U/mL adenosine deamin ase (ADA) (final assay concentration of 2 U/mL), to give a final assay concentration of 2.5 μg/well.
Compound dilution were prepared on a Biomek 2000 to give a series of 10 concentrations from 40-0.002 μM (4×). […] Total binding was determined in the absence of I-AB-MECA and non specific binding in the presence of 10 μM I-AB-MECA. […]

The target of another experiment is T2, adenosine A3 receptors (Homo sapiens, UniProt P0DMS8).
T2 construct: expressed in transfected cells; membranes prepared in house
T2 sequence (P0DMS8 1-318): T1 sequence (P0DMS8 1-318)
As to the kind of experiment: A3 [35S]-GTPGammaS binding functional assay (SPA, CHO membranes). Format: biochemical. As to conditions: agonist stimulation of [35S]-GTPγS binding. The procedure:
To establish the functional response to compounds of this invention an assay was carried out measuring A3 agonist stimulation of [^35S]-GTPγS binding in membranes prepared from CHO cells stably expressing adenosine A3 receptors. The agonist-induced stimulation of binding of [^35S]-GTPγS to activated G proteins has been used as a functional assay for a variety of receptors, including adenosine receptors. See Lorenzen et al., Mol Pharmacol, Vol. 49, pp. 915-926 (1996); and Jacobson et al., Drug Dev Res Vol. 37, p. 131 (1996).
The conventional GTPγS binding assay described by Lorenzen et al (1996), supra, is a filtration based method and thus requires a separation step; we have modified this method to run as a SPA format so that it can be used in a semi-automated and homogenous formal. In the SPA assay membranes are captured by wheatgerm agglutinin (WGA) SPA beads, through a specific interaction between WGA and carbohydrate residues of glycoproteins on the surfaces for the membranes. Upon receptor stimulation, [^35S]-GTPγS binds specifically to the alpha subunit of the G-protein thus bringing the [^35S]-GTPγS into close proximity with the SPA beads. Emitted β particles from the [^35S]-GTPγS excite the scintillant in the beads and produce light.
The assay was performed in a final volume of 250 μL/well in a white non-binding surface 96-well Optiplate. […]

As to `CNC(=O)[C@H]1O[C@@H](n2cnc3c(NCc4cccc(I)c4)ncnc32)[C@H](O)[C@@H]1O` [IB-MECA], in experiment [1] (administration of IB-MECA), the increase in basal or systemic blood pressure is 10 to 30%. For the same compound, the “basal or systemic blood pressure after administration” value in experiment [1] (from about 70 mmHg) is given as “about 90 mmHg”.

Turning to `CC(=O)N[C@H]1C[C@@H](n2cnc3c(NCc4cccc(I)c4)nc(Cl)nc32)[C@H](O)[C@@H]1O` [Example 1, N-{(1S,2R,3S,4R)-4-[2-Chloro-6-(3-iodobenzylamino)-purin-9-yl]-2,3-dihydroxycyclopentyl}-acetamide], affinity at human A3 receptors was put at a Ki of 0.91 nM. In addition, a half-maximal response on adenosine A3 receptors (EC50) required 11 nM.

The values above are taken from patent publication US20090281126A1, “Organic Compounds” (Novartis AG, priority 2006, published 2009).
